Strand notation (5' to 3'): a small letter for the sugar, then the base; units joined by * are phosphorothioate-linked, units joined directly phosphodiester-linked; [ ] holds rarer units or linkages, { } end groups; capitals alone tell only the bases. k = constrained ethyl (cEt); [5mC] = 5-methylcytosine; d = 2'-deoxy (DNA)
These substances were tested on human SMAD7 mRNA (assay: Antisense inhibition of human SMAD7 mRNA expression in Hep3B cells by 3-10-3 cEt gapmers, 10,000 nM, electroporation (Example 2)). Details: Hep3B cells, 10,000 nM antisense oligonucleotide, electroporation, approximately 24 hours, RT-PCR primer probe set RTS5062, relative to untreated control cells.
Assay type: cell-based
Method: Antisense oligonucleotides were designed to target human SMAD7 mRNA and were tested for their effects on SMAD7 mRNA expression in vitro. The antisense oligonucleotides were tested in a series of experiments that had similar culture conditions, as described below. ION 771576, described in the studies above and which is a 5-10-5 MOE gapmer, was also included in these assays. Cultured Hep3B cells at a density of 20,000 cells per well were transfected using electroporation with 10,000 nM antisense oligonucleotide. After a treatment period of approximately 24 hours, RNA was isolated from the cells and SMAD7 mRNA levels were measured by quantitative real-time PCR. Primer probe set RTS5062 was used to measure human SMAD7 mRNA levels. SMAD7 mRNA levels were adjusted according to total RNA content, as measured by RIBOGREEN®. Results are presented as percent inhibition of SMAD7 mRNA expression, relative to untreated control cells.
The newly designed chimeric antisense oligonucleotides in the Tables below were designed as 3-10-3 cEt gapmers. The gapmers are 16 nucleosides in length, wherein the central gap segment comprises often 2′-deoxynucleosides and is flanked by wing segments on the 5′ direction and the 3′ direction comprising three nucleosides each. Each nucleoside in the 5′ wing segment and each nucleoside in the 3′ wing segment has a cEt sugar modification. The internucleoside linkages throughout each gapmer are phosphorothioate (P═S) linkages. All cytosine residues throughout each gapmer are 5-methylcytosines.
“Start site” indicates the 5′-most nucleoside to which the gapmer is targeted in the human gene sequence. “Stop site” indicates the 3′-most nucleoside to which the gapmer is targeted human gene sequence. […] Some of the oligonucleotides presented were complementary to SMAD7 mRNA sequences RefSeqNo. NM_001190821.1 (designated herein as SEQ ID NO: 3) or RefSeqNo. NM_001190822.1 (designated herein as SEQ ID NO: 4), and are presented in a separate table shown below.

Substance | % Inhibition
772628 (kG*k[5mC]*k[5mC]*dT*dT*dG*dA*dT*dG*dG*dA*dG*dA*kA*kA*k[5mC]; antisense) [compound 772628] | 33%
772633 (kG*kG*kT*d[5mC]*dA*dT*dT*dG*dG*dG*d[5mC]*d[5mC]*dG*k[5mC]*kT*kG; antisense) [compound 772633] | 37%

Same assay, conditions: Hep3B cells, electroporation with 10,000 nM antisense oligonucleotide, approximately 24 hours, SMAD7 mRNA by RT-PCR (RTS5062), relative to untreated control cells

Substance | % Inhibition
772642 (kT*kA*k[5mC]*d[5mC]*dG*dG*d[5mC]*dT*dG*dT*dT*dG*dA*kA*kG*kA; antisense) [compound 772642] | 0%
772889 (k[5mC]*kT*k[5mC]*d[5mC]*dA*dT*dT*d[5mC]*dA*dT*dA*dA*dT*kA*kT*kT; antisense) [compound 772889] | 7%
790458 (k[5mC]*kG*k[5mC]*d[5mC]*dA*dG*dT*d[5mC]*dT*d[5mC]*d[5mC]*d[5mC]*dG*kG*kA*kG; antisense) [compound 790458] | 0%
790460 (kA*kG*kG*dA*dG*d[5mC]*dG*dG*d[5mC]*dG*dG*d[5mC]*dG*kG*k[5mC]*k[5mC]; antisense) [compound 790460] | 58%

Same assay, conditions: Hep3B cells, electroporation with 10,000 nM antisense oligonucleotide, approximately 24 hours, primer probe set RTS5062, relative to untreated control cells

Substance | % inhibition of SMAD7 mRNA expression | % Inhibition
772689 (kG*kT*kT*d[5mC]*dA*dT*dT*dT*dA*dA*dA*d[5mC]*d[5mC]*kT*kT*kT; antisense) [compound 772689] | 26% | –
772692 (kA*kA*kA*dG*d[5mC]*dA*d[5mC]*dT*dA*d[5mC]*dA*dA*dT*kG*k[5mC]*kT; antisense) [compound 772692] | – | 19%
772696 (kT*k[5mC]*kT*d[5mC]*dT*d[5mC]*dA*dA*dA*dG*d[5mC]*dA*d[5mC]*kT*kA*k[5mC]; antisense) [compound 772696] | 56% | –
772700 (k[5mC]*kT*kT*dT*dA*dA*dT*dA*dA*dA*dT*d[5mC]*dT*k[5mC]*kA*kG; antisense) [compound 772700] | – | 24%
772702 (k[5mC]*kG*kT*d[5mC]*dT*dT*dT*dA*dT*dA*dT*dT*dT*kA*k[5mC]*kA; antisense) [compound 772702] | – | 23%
772708 (kA*kA*kA*dG*dT*dG*d[5mC]*dA*dT*d[5mC]*dT*dT*dT*kT*k[5mC]*kT; antisense) [compound 772708] | 0% | –
772709 (kT*kA*kA*dA*dG*d[5mC]*dA*dA*dA*dG*dT*dG*d[5mC]*kA*kT*k[5mC]; antisense) [compound 772709] | 0% | –
772712 (kA*k[5mC]*k[5mC]*d[5mC]*dA*dT*dA*dG*dA*dA*dA*dA*dA*kA*kA*k[5mC]; antisense) [compound 772712] | 0% | –
772717 (kA*k[5mC]*kT*d[5mC]*d[5mC]*dT*dT*dT*dA*dG*dA*dA*dA*kA*kA*k[5mC]; antisense) [compound 772717] | 28% | –
790461 (k[5mC]*k[5mC]*kG*dG*dG*d[5mC]*dA*dG*dG*dA*dG*d[5mC]*dG*kG*k[5mC]*kG; antisense) [compound 790461] | 42% | –
790462 (kG*k[5mC]*kG*d[5mC]*dA*dG*dG*d[5mC]*dG*dA*d[5mC]*dA*dG*k[5mC]*kA*kG; antisense) [compound 790462] | 43% | –

Same assay, conditions: Hep3B cells, electroporation, 10,000 nM antisense oligonucleotide, approximately 24 hours, RTS5062, relative to untreated control cells

Substance | % inhibition of SMAD7 mRNA expression
772786 (kG*kA*k[5mC]*d[5mC]*dA*d[5mC]*dA*dG*d[5mC]*dA*d[5mC]*d[5mC]*dT*kT*kG*kT; antisense) [compound 772786] | 19%
772801 (kG*kA*k[5mC]*dA*dA*dA*d[5mC]*d[5mC]*dT*dT*d[5mC]*d[5mC]*dG*kA*kA*kA; antisense) [compound 772801] | 34%
772813 (kA*kA*kG*dG*dG*d[5mC]*dG*d[5mC]*dA*dG*dG*dA*dA*kA*kG*kG; antisense) [compound 772813] | 43%

Same assay, conditions: SMAD7 mRNA, Hep3B cells, 10,000 nM antisense oligonucleotide, electroporation, approximately 24 hours, primer probe set RTS5062, relative to untreated control cells

Substance | % Inhibition
772635 (kA*kA*kG*d[5mC]*dT*dG*dA*dT*d[5mC]*dT*dG*d[5mC]*dA*k[5mC]*kG*kG; antisense) [compound 772635] | 43%
772687 (kA*k[5mC]*k[5mC]*dT*dT*dT*dG*dT*dA*dG*dT*dT*dA*kG*kA*kA; antisense) [compound 772687] | 46%
772711 (kA*kA*kA*d[5mC]*dA*d[5mC]*d[5mC]*dA*dA*dT*d[5mC]*dT*dT*kG*kT*kG; antisense) [compound 772711] | 0%
772713 (kA*kT*kA*dA*d[5mC]*dA*d[5mC]*d[5mC]*d[5mC]*dA*dT*dA*dG*kA*kA*kA; antisense) [compound 772713] | 24%
772714 (kA*kG*kG*dT*dG*dA*dT*dA*dA*d[5mC]*dA*d[5mC]*d[5mC]*k[5mC]*kA*kT; antisense) [compound 772714] | 0%
772715 (kA*kG*k[5mC]*dT*dA*dG*dG*dT*dG*dA*dT*dA*dA*k[5mC]*kA*k[5mC]; antisense) [compound 772715] | 0%
772733 (kG*kG*kT*dG*dA*dT*dT*dG*d[5mC]*d[5mC]*dT*dT*dG*kA*kT*kA; antisense) [compound 772733] | 39%
772734 (kA*kG*kG*d[5mC]*dA*dG*dG*dG*d[5mC]*d[5mC]*dG*d[5mC]*dG*kA*kG*kG; antisense) [compound 772734] | 16%
772735 (kA*kA*k[5mC]*dT*dG*dT*dT*dT*dG*dT*d[5mC]*dT*dT*kA*kG*k[5mC]; antisense) [compound 772735] | 52%
772738 (kA*k[5mC]*k[5mC]*dA*dG*dT*dT*dG*dG*dT*dT*dT*dG*kA*kG*kA; antisense) [compound 772738] | 16%
772739 (kT*kA*k[5mC]*dT*d[5mC]*dA*d[5mC]*d[5mC]*dA*dG*dT*dT*dG*kG*kT*kT; antisense) [compound 772739] | 0%
772762 (kA*kT*kT*dT*dT*dG*d[5mC]*dT*dA*d[5mC]*d[5mC]*dT*dA*kA*kT*kG; antisense) [compound 772762] | 11%
772765 (kG*kA*kT*dT*dG*dG*d[5mC]*dA*dG*dG*dT*dT*dA*kA*kT*k[5mC]; antisense) [compound 772765] | 35%
772808 (k[5mC]*k[5mC]*k[5mC]*d[5mC]*dA*dT*dT*d[5mC]*dA*dT*dT*dA*dA*kG*k[5mC]*k[5mC]; antisense) [compound 772808] | 34%
772809 (k[5mC]*k[5mC]*kT*dA*dA*dA*d[5mC]*dT*dG*dA*dG*d[5mC]*d[5mC]*k[5mC]*k[5mC]*kA; antisense) [compound 772809] | 48%
772929 (k[5mC]*kG*kG*dA*dA*dG*dT*d[5mC]*dT*dT*dG*dT*dA*kT*kT*kT; antisense) [compound 772929] | 37%
790463 (kA*kT*kG*dA*dA*dG*dA*dA*dG*dT*d[5mC]*dG*dG*kG*k[5mC]*kG; antisense) [compound 790463] | 53%

Reference: patent US10517889B2, “Modulators of SMAD7 expression” (Ionis Pharmaceuticals, Inc., priority 2017, dated 2019)
